Data as given in ChEMBL document CHEMBL2434901, “2-Phenylbenzofuran derivatives alleviate mitochondrial damage via the inhibition of β-amyloid aggregation” (Bioorg Med Chem Lett, 2013).
Activity calls are given as the source filed them. The rule behind the calls is not given here.

How the values were obtained:
[1] = molecular target: Amyloid-beta precursor protein (Homo sapiens) (UniProt P05067); assay: Inhibition of amyloid beta (unknown origin) fibril formation at 10 uM by thioflavin T fluorescent dye assay
[2] = molecular target: Amyloid-beta precursor protein (Homo sapiens) (UniProt P05067); assay: Inhibition of amyloid beta (1 to 42) (unknown origin) oligomerization at 10 uM after 2 hrs by SDS-PAGE analysis
[3] = system: HT-22; assay: Neuroprotective activity in mouse HT22 cells assessed as reduction of amyloid beta (1 to 42)-induced cytotoxicity by measuring green to red fluorescence ratio using JC1 staining at 10 uM after 10 mins relative to amyloid beta (1 to 42) treated control; type: functional
[4] = system: HT-22; assay: Neuroprotective activity in mouse HT22 cells assessed as reduction of amyloid beta (1 to 42)-induced cytotoxicity by measuring green to red fluorescence ratio using JC1 staining at 10 uM after 10 mins relative to control; type: functional; settings: HT-22, 10 min
[5] = Cytotoxicity against mouse HT22 cells assessed as cell viability at 10 uM by MTT assay relative to control; type: cell-based, HT-22; settings: read-out: Activity

Amyloid-beta precursor protein (Homo sapiens), sequence (P05067 whole entry): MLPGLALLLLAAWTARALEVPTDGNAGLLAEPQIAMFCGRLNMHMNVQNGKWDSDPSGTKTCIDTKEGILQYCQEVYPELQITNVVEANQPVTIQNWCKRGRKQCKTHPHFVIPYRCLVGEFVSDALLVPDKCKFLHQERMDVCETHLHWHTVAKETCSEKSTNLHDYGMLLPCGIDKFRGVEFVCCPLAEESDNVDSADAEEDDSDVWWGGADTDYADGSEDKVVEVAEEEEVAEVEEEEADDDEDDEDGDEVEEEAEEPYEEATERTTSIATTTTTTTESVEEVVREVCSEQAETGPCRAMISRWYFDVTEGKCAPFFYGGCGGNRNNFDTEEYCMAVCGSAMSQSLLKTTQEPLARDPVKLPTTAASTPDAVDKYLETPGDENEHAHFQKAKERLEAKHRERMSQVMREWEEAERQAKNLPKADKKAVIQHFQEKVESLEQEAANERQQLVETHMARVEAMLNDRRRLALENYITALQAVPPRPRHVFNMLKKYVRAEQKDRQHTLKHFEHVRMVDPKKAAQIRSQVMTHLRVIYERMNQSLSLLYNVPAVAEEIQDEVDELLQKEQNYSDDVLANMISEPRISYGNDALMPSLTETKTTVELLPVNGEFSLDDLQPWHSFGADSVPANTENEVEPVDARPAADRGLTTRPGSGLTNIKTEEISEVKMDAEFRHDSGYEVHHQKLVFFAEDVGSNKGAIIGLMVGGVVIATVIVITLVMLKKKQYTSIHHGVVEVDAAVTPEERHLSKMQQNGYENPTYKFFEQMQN

Work on `COc1cc(/C=C/C(=O)O)cc2cc(-c3ccccc3F)oc12` yielded an inhibition [1] of 7%.
Work on `COc1ccc(-c2cc3cc(/C=C/C(=O)O)cc(O)c3o2)cc1` yielded an inhibition [1] of 34.2%.
Molecule `COc1cc(/C=C/C(=O)O)cc2cc(-c3ccccc3O)oc12` has an inhibition [1] of 18.1%.
`COc1cccc(-c2cc3cc(/C=C/C(=O)O)cc(OC)c3o2)c1` showed an inhibition [1] of 0%.
For `COc1cc(/C=C/C(=O)O)ccc1O`, the inhibition [2] was “Active” and the inhibition [1] was 42.8%.
`COc1ccc(-c2cc3cc(/C=C/C(=O)O)cc(O)c3o2)cc1O` showed a Ratio [3] of 122.1, an inhibition at 10 µM [4] of 14.5% and a viability at 10 µM [5] of 104%. For the same molecule, the inhibition [1] was 43.3%.
Molecule `COc1cc(-c2cc3cc(/C=C/C(=O)O)cc(OC)c3o2)ccc1O` has an inhibition [1] of 28.4%.
For `COc1cc(/C=C/C(=O)O)cc2cc(-c3cccc(F)c3)oc12`, the inhibition [1] was 0.4%.
For `O=C(O)/C=C/c1cc(O)c2oc(-c3ccc(O)cc3)cc2c1`, the inhibition [1] was 22.4%.
In the case of `COc1cc(/C=C/C(=O)O)cc2cc(-c3ccccc3)oc12`, the inhibition [1] is reported as 0%.
`COc1cc(/C=C/C(=O)O)cc2cc(-c3cccc(N(C)C)c3)oc12` gave an inhibition [1] of 34.8%.
`CN(C)c1cc(-c2cc3cc(/C=C/C(=O)O)cc(O)c3o2)ccc1F` showed an inhibition [1] of 16.8%.
`COc1cc(/C=C/C(=O)O)cc2cc(-c3ccc(F)c(N(C)C)c3)oc12` showed an inhibition [1] of 9.9%.
For `CN(C)c1cccc(-c2cc3cc(/C=C/C(=O)O)cc(O)c3o2)c1`, the inhibition [1] was 33.3%.
Molecule `COc1ccc(-c2cc3cc(/C=C/C(=O)O)cc(OC)c3o2)cc1` has an inhibition [1] of 12.5%.
With `COc1cc(/C=C/C(=O)O)cc2cc(-c3ccc(N(C)C)c(F)c3)oc12` the Ratio [3] was 103.1, the viability at 10 µM [5] was 102% and the inhibition [2] was “Active”. It also gave an inhibition [1] of 57.5%.
In the case of `CN(C)c1ccccc1-c1cc2cc(/C=C/C(=O)O)cc(O)c2o1`, the inhibition [1] is reported as 8.1%.
Molecule `COc1cccc(-c2cc3cc(/C=C/C(=O)O)cc(O)c3o2)c1` has an inhibition [1] of 0%.
For `COc1cc(/C=C/C(=O)O)cc2cc(-c3ccc(O)cc3)oc12`, the inhibition [1] was 14.8%.
`O=C(O)/C=C/c1cc(O)c2oc(-c3cccc(O)c3)cc2c1` showed an inhibition [1] of 0%.
Molecule `COc1ccc(-c2cc3cc(/C=C/C(=O)O)cc(O)c3o2)cc1N(C)C` has an inhibition [1] of 32.5%.
`CN(C)c1ccc(-c2cc3cc(/C=C/C(=O)O)ccc3o2)cc1` showed an inhibition [1] of 57%.
Work on `COc1cc(-c2cc3cc(/C=C/C(=O)O)cc(O)c3o2)ccc1N(C)C` yielded a Ratio [3] of 113.4, an inhibition at 10 µM [4] of 45% and a viability at 10 µM [5] of 102%. The inhibition [2] was “Active” and the inhibition [1] was 45.9%.
Work on `COc1ccccc1-c1cc2cc(/C=C/C(=O)O)cc(OC)c2o1` yielded an inhibition [1] of 0%.
With `COc1cc(-c2cc3cc(/C=C/C(=O)O)cc(OC)c3o2)ccc1N(C)C` the Ratio [3] was 104.2, the viability at 10 µM [5] was 104% and the inhibition [2] was “Active”. For the same molecule, the inhibition [1] was 50.2%.
Work on `COc1cc(/C=C/C(=O)O)cc2cc(-c3cccc(O)c3)oc12` yielded an inhibition [1] of 0%.
`COc1ccccc1-c1cc2cc(/C=C/C(=O)O)cc(O)c2o1` showed an inhibition [1] of 0%.
Molecule `CN(C)c1ccc(-c2cc3cc(/C=C/C(=O)O)cc(O)c3o2)cc1` has a Ratio [3] of 123.2, an inhibition at 10 µM [4] of 73.1% and a viability at 10 µM [5] of 100%. The inhibition [2] was “Active” and the inhibition [1] was 70.6%.
In the case of `O=C(O)/C=C/c1cc(O)c2oc(-c3ccc(F)cc3)cc2c1`, the inhibition [1] is reported as 26.7%.
For `O=C(O)/C=C/c1cc(O)c2oc(-c3cccc(F)c3)cc2c1`, the inhibition [1] was 14.3%.
In the case of `COc1cc(/C=C/C(=O)O)cc2cc(-c3ccc(F)cc3)oc12`, the inhibition [1] is reported as 2.7%.
Molecule `COc1ccc(-c2cc3cc(/C=C/C(=O)O)cc(OC)c3o2)cc1O` has an inhibition [1] of 0%.
`O=C(O)/C=C/c1cc(O)c2oc(-c3ccccc3O)cc2c1` showed an inhibition [1] of 28.3%.
Work on `COc1ccc(-c2cc3cc(/C=C/C(=O)O)cc(OC)c3o2)cc1N(C)C` yielded an inhibition [1] of 11.7%.
Molecule `O=C(O)/C=C/c1cc(O)c2oc(-c3ccccc3)cc2c1` has an inhibition [1] of 16.8%.
With `COc1cc(/C=C/C(=O)O)cc2cc(-c3ccc(N(C)C)cc3)oc12` the Ratio [3] was 90.3, the viability at 10 µM [5] was 93.3% and the inhibition [2] was “Active”. The inhibition [1] was 72.6%.
`O=C(O)/C=C/c1cc(O)c2oc(-c3ccccc3F)cc2c1` showed an inhibition [1] of 19.7%.
`CN(C)c1ccc(-c2cc3cc(/C=C/C(=O)O)cc(O)c3o2)cc1F` showed a Ratio [3] of 115.7, an inhibition at 10 µM [4] of 22.3% and a viability at 10 µM [5] of 111%. The inhibition [2] was “Active” and the inhibition [1] was 49.8%.
For `COc1cc(-c2cc3cc(/C=C/C(=O)O)cc(O)c3o2)ccc1O`, the Ratio [3] was 115.9, the viability at 10 µM [5] was 105% and the inhibition [1] was 42.6%.
With `COc1cc(/C=C/C(=O)O)cc2cc(-c3ccccc3N(C)C)oc12` the inhibition [1] was 3.7%.
